For the assay, the target named is URAT-1 transporter (Homo sapiens (Human), UniProt Q96S37). Briefly: URAT-1 inhibitor activity: [14C]-uric acid uptake in CHO-URAT1(L)GFP#8 (CHO#8) cells, scintillation proximity. The assay is classed as cell-based. Particulars: inhibition of [14C]-uric acid (30 nM) uptake into CHO#8 cells; compound 0 to 10 μM; 4 parameter logistic fit. In short, it runs like this: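 CHO cells stably expressing human URAT1 long isoform–eGFP fusion, pre-incubated 1 h in chloride-containing buffer pH 7.4, then given 30 nM [14C]-uric acid with compound (0–10 μM, 0.25% DMSO) in chloride-free gluconate buffer pH 7.4. Uptake measured by scintillation proximity on Cytostar plates.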
Chain of URAT-1 transporter (Q96S37 other isoform, or with tags, fused parts or gaps): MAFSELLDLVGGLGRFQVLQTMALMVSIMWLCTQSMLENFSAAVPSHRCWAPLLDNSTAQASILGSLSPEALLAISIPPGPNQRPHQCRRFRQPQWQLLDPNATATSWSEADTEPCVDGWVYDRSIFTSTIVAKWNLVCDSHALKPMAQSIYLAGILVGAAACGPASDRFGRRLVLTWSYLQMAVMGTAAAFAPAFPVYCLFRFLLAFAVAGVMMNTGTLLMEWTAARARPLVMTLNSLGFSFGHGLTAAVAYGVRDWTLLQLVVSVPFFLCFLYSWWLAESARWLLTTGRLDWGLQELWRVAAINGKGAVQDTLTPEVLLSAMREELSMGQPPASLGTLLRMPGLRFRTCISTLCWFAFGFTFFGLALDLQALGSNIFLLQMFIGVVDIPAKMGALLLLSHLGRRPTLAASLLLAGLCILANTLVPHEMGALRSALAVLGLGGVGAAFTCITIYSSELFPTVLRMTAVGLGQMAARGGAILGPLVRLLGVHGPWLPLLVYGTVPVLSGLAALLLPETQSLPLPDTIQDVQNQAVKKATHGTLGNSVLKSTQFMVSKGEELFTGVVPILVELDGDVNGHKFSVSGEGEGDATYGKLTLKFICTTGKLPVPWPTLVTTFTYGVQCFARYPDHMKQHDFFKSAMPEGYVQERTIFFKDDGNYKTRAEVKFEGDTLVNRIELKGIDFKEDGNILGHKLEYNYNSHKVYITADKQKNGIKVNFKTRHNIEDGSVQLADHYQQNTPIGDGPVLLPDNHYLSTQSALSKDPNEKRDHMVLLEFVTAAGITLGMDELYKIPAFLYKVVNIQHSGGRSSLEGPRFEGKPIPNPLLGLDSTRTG

One may read the IC50 as the concentration at which inhibition is half-maximal. A lower IC50 goes with greater potency in that assay. Take `N#Cc1cc(S(=O)(=O)Nc2ccc(F)cn2)ccc1Oc1ccc(OC(F)(F)F)cc1` [Example 35, 3-cyano-N-(5-fluoropyridin-2-yl)-4-[4-(trifluoromethoxy)phenoxy]benzenesulfonamide]: the half-maximal inhibitory concentration (IC50) was > 10000 nM.
In turn, `Cc1cccc(Cl)c1Oc1ccc(S(=O)(=O)Nc2ccc(F)cn2)cc1C#N` [Example 123, 4-(2-chloro-6-methylphenoxy)-3-cyano-N-(5-fluoropyridin-2-yl)benzenesulfonamide] returned an IC50 of 91 nM.
Take `O=S(=O)(Nc1ncccn1)c1cc(Cl)c(Oc2ccc(F)c(F)c2)cc1F` [compound 210]: the IC50 was > 10000 nM.
As to `CCOc1cc(Cl)ccc1Oc1ccc(S(=O)(=O)Nc2ccc(F)cn2)cc1C#N` [Example 110, 4-(4-chloro-2-ethoxyphenoxy)-3-cyano-N-(5-fluoropyridin-2-yl)benzenesulfonamide], half-maximal inhibition (IC50) was put at 123 nM.
As to `O=S(=O)(Nc1cccnn1)c1cc(Cl)c(Oc2ccc(Cl)cc2OC(F)F)cc1F` [Example 85, 5-chloro-4-[4-chloro-2-(difluoromethoxy)phenoxy]-2-fluoro-N-(pyridazin-3-yl)benzenesulfonamide], the IC50 is > 10000 nM.
In turn, `N#Cc1cc(F)c(Oc2ccc(S(=O)(=O)Nc3ccc(F)cn3)cc2C#N)cc1F` [Example 72, 3-cyano-4-(4-cyano-2,5-difluorophenoxy)-N-(5-fluoropyridin-2-yl)benzenesulfonamide] yielded an IC50 of 77 nM.
The result for `N#Cc1cc(S(=O)(=O)Nc2ncccn2)ccc1Oc1ccc(F)c(F)c1` [compound 211] reads > 3000 nM; that for `N#Cc1ccc(Oc2cc(F)c(S(=O)(=O)Nc3ccc(F)cn3)cc2F)cc1F` [Example 95, 4-(4-cyano-3-fluorophenoxy)-2,5-difluoro-N-(5-fluoropyridin-2-yl)benzenesulfonamide], > 10000 nM; that for `Cc1cc(Cl)c(Oc2ccc(S(=O)(=O)Nc3ccc(F)cn3)cc2C#N)cc1C#N` [Example 26, 4-(2-chloro-5-cyano-4-methylphenoxy)-3-cyano-N-(5-fluoropyridin-2-yl)benzenesulfonamide], 57 nM.
As to `N#Cc1cccc(Oc2ccc(S(=O)(=O)Nc3ccc(F)cn3)cc2C#N)c1` [Example 14, 3-cyano-4-(3-cyanophenoxy)-N-(5-fluoropyridin-2-yl)benzenesulfonamide], it took 206 nM to reach half-maximal inhibition (IC50).
`N#Cc1cc(S(=O)(=O)Nc2ccc(F)cn2)ccc1Oc1ccc(Cl)c(Cl)c1` [Example 122, 3-cyano-4-(3,4-dichlorophenoxy)-N-(5-fluoropyridin-2-yl)benzenesulfonamide] gave a half-maximal inhibitory concentration (IC50) of 99 nM.
In turn, `Cc1c(F)ccc(Oc2ccc(S(=O)(=O)Nc3ccc(F)cn3)cc2C#N)c1C` [Example 172, 3-cyano-4-(4-fluoro-2,3-dimethylphenoxy)-N-(5-fluoropyridin-2-yl)benzenesulfonamide] gave an IC50 of 502 nM.
Turning to `N#Cc1ccc(Oc2cc(F)c(S(=O)(=O)Nc3cccnn3)cc2Cl)cc1Cl` [compound 227], the IC50 was > 10000 nM.
As to `N#Cc1cc(S(=O)(=O)Nc2ccc(F)cn2)ccc1Oc1ccc(F)c(F)c1F` [Example 157, 3-cyano-N-(5-fluoropyridin-2-yl)-4-(2,3,4-trifluorophenoxy)benzenesulfonamide], the half-inhibitory concentration (IC50) stood at 51 nM.
In the case of `N#Cc1ccc(Oc2ccc(S(=O)(=O)Nc3ccc(F)cn3)cc2C#N)cc1F` [Example 43, 3-cyano-4-(4-cyano-3-fluorophenoxy)-N-(5-fluoropyridin-2-yl)benzenesulfonamide] it was 53 nM.

(Values after patent US9067922B2, “Chemical compounds” (Pfizer Limited, priority 2013, dated 2015).)
